# In article PMC12136037, “Type II kinase inhibitors that target Parkinson’s disease–associated LRRK2” (Science Advances, 2025):
# What was measured:
# Experiment in all cases: DSF 100 kinase selectivity screen;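 also: compound tested at 20 µM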
# Format in all cases: binding
# [1] = biological target: T1, ~100 representative kinases (Homo sapiens, UniProt O00444); conditions: protein PLK4; average of three replicates
# T1 construct: Recombinant protein kinase domains with a concentration of 2 μM
# T1 sequence (O00444 1-970): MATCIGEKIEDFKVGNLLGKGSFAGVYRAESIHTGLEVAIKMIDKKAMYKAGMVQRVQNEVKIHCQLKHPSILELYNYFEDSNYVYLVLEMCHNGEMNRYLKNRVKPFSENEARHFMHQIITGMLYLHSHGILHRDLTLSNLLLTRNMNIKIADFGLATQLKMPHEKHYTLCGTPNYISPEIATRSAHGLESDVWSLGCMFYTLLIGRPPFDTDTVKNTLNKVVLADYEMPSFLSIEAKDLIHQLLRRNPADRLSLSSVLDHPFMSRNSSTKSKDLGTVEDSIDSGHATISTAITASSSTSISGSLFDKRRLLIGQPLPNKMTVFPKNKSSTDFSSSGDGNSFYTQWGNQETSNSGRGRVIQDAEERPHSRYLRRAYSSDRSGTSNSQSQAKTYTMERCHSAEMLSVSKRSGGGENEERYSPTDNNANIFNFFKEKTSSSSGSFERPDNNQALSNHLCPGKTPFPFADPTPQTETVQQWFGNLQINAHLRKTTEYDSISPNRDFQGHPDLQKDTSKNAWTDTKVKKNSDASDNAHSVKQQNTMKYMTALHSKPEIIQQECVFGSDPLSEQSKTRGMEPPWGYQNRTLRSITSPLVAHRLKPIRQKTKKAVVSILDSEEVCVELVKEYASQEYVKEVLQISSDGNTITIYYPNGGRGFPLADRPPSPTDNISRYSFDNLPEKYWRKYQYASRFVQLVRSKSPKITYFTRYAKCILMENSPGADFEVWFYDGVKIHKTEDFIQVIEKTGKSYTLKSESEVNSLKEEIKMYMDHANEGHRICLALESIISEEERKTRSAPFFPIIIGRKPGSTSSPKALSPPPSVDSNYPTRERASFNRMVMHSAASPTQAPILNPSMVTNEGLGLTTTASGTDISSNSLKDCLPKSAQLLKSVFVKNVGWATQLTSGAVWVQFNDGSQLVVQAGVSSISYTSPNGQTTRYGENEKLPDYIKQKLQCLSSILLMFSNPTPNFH
# Summary of the method: (§1)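 Each kinase domain, at 2 μM, is mixed with 20 μM test compound and SYPRO Orange in Hepes (20 mM, pH 7.5) with 500 mM NaCl. Temperature is then raised at 3°C/min and fluorescence-monitored unfolding yields the melting temperature change, ΔTm in degrees Celsius.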
# [2] = biological target: T2, ~100 representative kinases (Homo sapiens, UniProt Q9H2G2); conditions: Protein SLK; DSF; average of three replicates
# T2 construct: Recombinant protein kinase domains with a concentration of 2 μM
# Summary of the method: as §1
# [3] = biological target: T3, ~100 representative kinases (Homo sapiens, UniProt Q92630); conditions: Protein DYRK2; average of three replicates
# T3 construct: Recombinant protein kinase domains with a concentration of 2 μM
# T3 sequence (Q92630 1-601): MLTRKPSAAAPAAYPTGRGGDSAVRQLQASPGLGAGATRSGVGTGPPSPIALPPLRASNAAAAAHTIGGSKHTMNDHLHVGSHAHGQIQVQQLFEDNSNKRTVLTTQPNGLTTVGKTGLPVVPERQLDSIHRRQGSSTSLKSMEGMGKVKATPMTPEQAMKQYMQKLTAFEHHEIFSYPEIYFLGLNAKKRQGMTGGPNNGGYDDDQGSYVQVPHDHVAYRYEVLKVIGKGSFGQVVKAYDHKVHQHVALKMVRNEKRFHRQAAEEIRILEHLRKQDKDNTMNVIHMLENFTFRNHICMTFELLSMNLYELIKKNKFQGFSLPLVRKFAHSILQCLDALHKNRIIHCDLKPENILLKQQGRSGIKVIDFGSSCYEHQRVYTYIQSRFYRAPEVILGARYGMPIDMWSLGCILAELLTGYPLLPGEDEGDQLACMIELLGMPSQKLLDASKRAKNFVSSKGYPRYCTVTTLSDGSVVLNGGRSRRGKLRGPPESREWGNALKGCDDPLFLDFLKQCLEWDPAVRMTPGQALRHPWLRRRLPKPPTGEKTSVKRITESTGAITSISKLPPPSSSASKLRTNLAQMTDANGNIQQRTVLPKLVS
# Summary of the method: as §1
# [4] = biological target: T4, ~100 representative kinases (Homo sapiens, UniProt P54762); conditions: Protein EPHB1; average of three replicates
# T4 construct: Recombinant protein kinase domains with a concentration of 2 μM
# T4 sequence (P54762 18-984): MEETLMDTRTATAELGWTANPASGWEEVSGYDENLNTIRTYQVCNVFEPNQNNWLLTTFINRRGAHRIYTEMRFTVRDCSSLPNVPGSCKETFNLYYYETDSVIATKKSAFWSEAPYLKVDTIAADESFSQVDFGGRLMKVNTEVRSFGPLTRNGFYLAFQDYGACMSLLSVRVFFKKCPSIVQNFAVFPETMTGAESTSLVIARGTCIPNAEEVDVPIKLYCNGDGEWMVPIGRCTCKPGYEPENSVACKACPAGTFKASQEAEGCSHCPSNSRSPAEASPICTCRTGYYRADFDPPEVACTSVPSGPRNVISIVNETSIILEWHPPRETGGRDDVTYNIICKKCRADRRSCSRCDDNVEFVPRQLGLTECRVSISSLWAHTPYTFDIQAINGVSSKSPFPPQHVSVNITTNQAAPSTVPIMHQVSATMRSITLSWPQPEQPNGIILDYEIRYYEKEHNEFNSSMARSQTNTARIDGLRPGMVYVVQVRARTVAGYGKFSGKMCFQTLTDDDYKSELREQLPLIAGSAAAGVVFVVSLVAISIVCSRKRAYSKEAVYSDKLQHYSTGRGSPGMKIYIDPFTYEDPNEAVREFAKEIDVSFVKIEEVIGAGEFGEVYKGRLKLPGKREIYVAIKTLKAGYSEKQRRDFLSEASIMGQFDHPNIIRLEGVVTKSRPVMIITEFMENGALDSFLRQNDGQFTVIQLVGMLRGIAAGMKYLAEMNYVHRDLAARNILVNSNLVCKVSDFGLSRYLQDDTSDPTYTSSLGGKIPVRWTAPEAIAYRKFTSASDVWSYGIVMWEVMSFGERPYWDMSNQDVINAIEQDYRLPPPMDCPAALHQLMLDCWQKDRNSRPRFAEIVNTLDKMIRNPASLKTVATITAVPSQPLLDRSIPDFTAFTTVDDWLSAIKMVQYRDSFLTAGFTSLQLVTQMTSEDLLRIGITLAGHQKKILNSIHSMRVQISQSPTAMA
# Summary of the method: as §1
# [5] = biological target: T5, ~100 representative kinases (Homo sapiens, UniProt Q13153); conditions: protein PAK1; average of three replicates
# T5 construct: Recombinant protein kinase domains with a concentration of 2 μM
# Summary of the method: as §1
# T2 sequence (Q9H2G2 whole entry, the tested form may be a part): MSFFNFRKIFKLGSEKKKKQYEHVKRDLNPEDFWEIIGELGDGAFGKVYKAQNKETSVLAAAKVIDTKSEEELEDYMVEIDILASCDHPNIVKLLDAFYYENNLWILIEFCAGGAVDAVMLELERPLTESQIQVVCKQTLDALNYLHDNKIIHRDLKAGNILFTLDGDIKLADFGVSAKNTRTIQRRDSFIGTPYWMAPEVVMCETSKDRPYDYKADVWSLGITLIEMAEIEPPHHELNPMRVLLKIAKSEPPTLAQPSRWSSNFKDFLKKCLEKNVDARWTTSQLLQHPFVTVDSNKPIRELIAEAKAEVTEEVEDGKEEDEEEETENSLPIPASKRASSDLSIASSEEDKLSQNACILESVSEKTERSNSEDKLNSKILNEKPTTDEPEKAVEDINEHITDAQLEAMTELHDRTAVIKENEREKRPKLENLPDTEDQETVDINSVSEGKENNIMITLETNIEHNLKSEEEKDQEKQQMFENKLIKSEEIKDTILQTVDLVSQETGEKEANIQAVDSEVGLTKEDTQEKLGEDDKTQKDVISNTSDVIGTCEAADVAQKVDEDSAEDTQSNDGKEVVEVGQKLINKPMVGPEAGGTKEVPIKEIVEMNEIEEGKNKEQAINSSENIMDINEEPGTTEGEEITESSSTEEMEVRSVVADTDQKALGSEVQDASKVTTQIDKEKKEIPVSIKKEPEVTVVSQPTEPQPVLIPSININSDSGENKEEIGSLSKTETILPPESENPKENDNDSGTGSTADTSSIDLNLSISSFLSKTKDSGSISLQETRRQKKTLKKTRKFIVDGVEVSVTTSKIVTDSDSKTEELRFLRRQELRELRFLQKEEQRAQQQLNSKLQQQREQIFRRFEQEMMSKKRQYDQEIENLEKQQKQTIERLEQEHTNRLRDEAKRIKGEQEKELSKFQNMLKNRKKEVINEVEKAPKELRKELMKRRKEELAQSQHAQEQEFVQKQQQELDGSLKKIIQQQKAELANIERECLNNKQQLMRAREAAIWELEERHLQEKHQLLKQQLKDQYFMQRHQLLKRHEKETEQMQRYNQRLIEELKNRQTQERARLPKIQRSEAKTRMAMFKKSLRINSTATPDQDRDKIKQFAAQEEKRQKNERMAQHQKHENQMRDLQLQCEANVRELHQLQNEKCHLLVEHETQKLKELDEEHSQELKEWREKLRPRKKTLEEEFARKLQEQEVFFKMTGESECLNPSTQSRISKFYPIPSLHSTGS
# T5 sequence (Q13153 whole entry, the tested form may be a part): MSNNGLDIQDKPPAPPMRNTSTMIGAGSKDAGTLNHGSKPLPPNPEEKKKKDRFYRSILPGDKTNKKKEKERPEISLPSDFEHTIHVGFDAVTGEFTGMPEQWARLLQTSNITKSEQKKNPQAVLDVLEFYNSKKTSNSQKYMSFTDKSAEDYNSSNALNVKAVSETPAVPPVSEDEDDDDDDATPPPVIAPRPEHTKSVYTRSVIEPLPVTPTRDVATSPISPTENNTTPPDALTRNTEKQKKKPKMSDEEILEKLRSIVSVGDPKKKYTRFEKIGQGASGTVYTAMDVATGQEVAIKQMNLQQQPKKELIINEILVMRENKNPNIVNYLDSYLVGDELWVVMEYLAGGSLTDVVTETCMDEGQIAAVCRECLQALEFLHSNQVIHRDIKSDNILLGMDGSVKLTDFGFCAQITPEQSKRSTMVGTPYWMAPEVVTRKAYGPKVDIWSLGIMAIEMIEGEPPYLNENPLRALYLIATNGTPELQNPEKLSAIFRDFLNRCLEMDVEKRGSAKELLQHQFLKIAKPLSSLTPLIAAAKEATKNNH
dTm [1] [K],dTm [2] [K],dTm [3] [K],dTm [4] [K],dTm [5] [K],SMILES
4.57,-0.88,1.57,-0.51,-0.88,COc1cc(S(C)(=O)=O)ccc1Nc1nc(N(C)C)c2c(Cl)c[nH]c2n1 [Compound 37]
5.97,2.31,4.70,-6.10,2.69,O=C(Nc1cccc(-c2c[nH]c3ncnc(N4CCOCC4)c23)c1)C1(C(=O)Nc2ccc(F)c(Br)c2F)CC1 [Compound 26]
4.74,13.65,9.71,5.08,3.58,Cc1ccc(-n2nc(C(C)(C)C)cc2NC(=O)Nc2cccc(-c3c[nH]c4ncnc(N5CCOCC5)c34)c2)cc1 [Compound 29]
0.00,1.44,2.68,-4.24,0.67,O=C(Nc1cccc(-c2c[nH]c3ncnc(N4CCOCC4)c23)c1)C1(C(=O)Nc2cc(Br)c(F)cc2F)CC1 [Compound 25]
0.00,3.29,3.64,-2.93,3.33,O=C(Nc1cc(F)cc(Br)c1)C1(C(=O)Nc2cccc(-c3c[nH]c4ncnc(N5CCOCC5)c34)c2)CC1 [Compound 27]

# Second part, the compound before the results:
SMILES,dTm [1] [K],dTm [2] [K],dTm [3] [K],dTm [4] [K],dTm [5] [K]
Cc1cc(F)ccc1NC(=O)C1(C(=O)Nc2cccc(-c3c[nH]c4ncnc(N5CCOCC5)c34)c2)CC1 [Compound 24],7.17,3.45,1.96,1.63,2.36
CCc1ccc(NC(=O)C2(C(=O)Nc3cccc(-c4c[nH]c5ncnc(N6CCOCC6)c45)c3)CC2)cc1 [Compound 15],9.77,5.04,4.76,3.72,1.40
O=C(Nc1cccc(-c2c[nH]c3ncnc(N4CCOCC4)c23)c1)C1(C(=O)Nc2ccc(F)c(F)c2)CC1 [Compound 17],9.62,7.02,7.75,2.50,3.52
C[C@@H]1CN(c2cc(-c3n[nH]c4ccc(OC5(C)CC5)cc34)ncn2)C[C@H](C)O1 [MLi2],3.07,-1.23,1.21,-0.37,-0.13
COc1cc(NC(=O)C2(C(=O)Nc3cccc(-c4c[nH]c5ncnc(N6CCOCC6)c45)c3)CC2)ccc1F [Compound 21],10.46,6.44,8.53,1.66,4.31
"CNC(=O)c1cc(Oc2ccc(NC(=O)Nc3cc(C(C)(C)C)nn3-c3ccc4ncccc4c3)c(F)c2)ccn1 [Rebastinib, reference compound]",6.17,14.21,6.14,4.28,1.98
O=C(Nc1cccc(-c2c[nH]c3ncnc(N4CCOCC4)c23)c1)c1cccn(-c2ccc(F)cc2)c1=O [Compound 4],8.52,6.46,6.24,2.81,4.33
CC(C)(C)c1cccc(NC(=O)C2(C(=O)Nc3cccc(-c4c[nH]c5ncnc(N6CCOCC6)c45)c3)CC2)c1 [Compound 22],9.02,5.75,5.80,-3.38,3.87
CCSc1nc(NC)c2c(-c3cccc(NC(=O)Nc4cc(C(C)(C)C)nn4-c4ccc(C)cc4)c3)c[nH]c2n1 [Compound 32],0.48,5.13,6.49,0.21,-0.13
